One experiment relates to Tg2576 mice. Description: Aβ42/Aβ40 ratio in brains of Tg2576 mice. The class given is in vivo, mouse. Particulars: Tg2576 transgenic mice.
For experiment [1], the system named is Aβ42. Description: Aβ42 versus Aβ40 production in cell lines treated with ginsenosides. Particulars: cell lines and primary neurons. The class given is cell-based. The source says:
(§1) Of note, γ-secretase inhibitors and non-steroidal anti-inflammatory drugs were not found to reverse these CCE defects (FIG. 17A-B). Ginsenosides such as (20S)Rg3 may therefore, unlike other Aβ42-lowering agents, also ameliorate the defect in CCE associated with Aβ. The following data support the role of PLCγ1 as a common upstream target modulating CCE as well as Aβ42 levels.

The next experiment deals with hippocampal slices. As to the kind of experiment: Long-term potentiation (fEPSP slope) in hippocampal slices treated with Aβ42. The source says:
FIG. 5. […] The field excitatory post synaptic potential slope (FEPSP slope) in hippocampal slices that were untreated or treated with Aβ42 (Aβ) or Aβ42 and 20(S)Rg3 was monitored over time.
PIP2 modulation rescues Aβ oligomer-induced synaptic dysfunction.

Experiment [2] concerns Aβ42. Description: Aβ42 ELISA in Hela-APPsw cells transfected with siRNA against PLC isoforms and treated with Rg3. The format is cell-based, human. As for the experimental part: FIG. 18A-B. Role of PLC γ1 in Aβ42-lowering activity of ginsenosides. (A) Hela-APPsw cells transfected with specific siRNA against PLCβ3, PLC γ1 and PLC γ2 were treated with either DMSO or 15 μM Rg3 for 6 hr. The down regulation of PLCβ3, PLCγ1 and PLCγ2 was confirmed by Western blot using isoform-specific antibodies. (B) Effects of RNAi-mediated downregulation of PLC isoforms in the presence of Rg3 treatment. Aβ42 levels were measured in the conditioned media by ELISA. Aβ values are shown as percentage of control siRNA and are the mean ±s.d. from three independent experiments (*P<0.001, **P<0.01 using ANOVA followed by Dunnett's test). (77,78)
Hela cells stably expressing Swedish FAD mutant APP (Hela-APPsw cells) were treated with small interfering RNA (siRNA) selective against various PLCβ(β1-4) and PLCγ (γ1, 2) isoforms.
(In an ELISA, binding on a coated surface is turned into a signal by an enzyme label.)

Experiment [3] relates to Aβ42. Description: Aβ42 in cultured hippocampal primary neurons from Tg2576 mice. Particulars: for Aβ42 in cultured hippocampal primary neurons: primary neurons from Tg2576 mice. The class given is cell-based, mouse.
Source text: FIG. 15A-B. (A) Rk1 and (20S)Rg3 decrease Aβ42 in cultured hippocampal primary neurons from Ad-model Tg2576 mice.
as §1

Experiment [4] has as its system Aβ42. Description: Aβ42 biogenesis in HeLa cells overexpressing APPsw. Particulars: HeLa cells stably overexpressing Swedish variant of human APP. The format is cell-based. The source says: (§2) FIG. 2A-E. Changes in PIP2 levels correlate with Aβ42 biogenesis. PIP2 levels (A) and Aβ42 biogenesis (D) in HeLa cells overexpressing human APPsw treated with either PLC inhibitor edelfosine (EDEL) or its active analog miltefosine (MILT). PIP2 levels (B) and Aβ42 biogenesis (E) in HeLa cells overexpressing human APPsw treated with PLC activator m-3m3FBS (M3M). (C) Modulation of PIP2 levels correlates with Aβ42 biogenesis. HeLa cells stably overexpressing the Swedish variant of human APP were treated with either control (DMSO), PLC inhibitor edelfosine (EDEL) or its active analog miltefosine (MILT). Steady-state PIP2 levels were determined by HPLC.

A further experiment has as its system PIP2. Description: Steady-state PIP2 levels determined by HPLC in HeLa cells overexpressing APPsw. The format is cell-based. Particulars: HeLa cells stably overexpressing Swedish variant of human APP.
Source text: as §2

The next experiment has as its system β-secretase (sAPPβ). Description: Secreted APP ectodomain generated by β-secretase (sAPPβ) in conditioned media of HeLa APPsw cells. The class given is cell-based, human. Particulars: HeLa cells stably expressing APPsw. How it is done: (§3) FIG. 3A-F. PIP2 levels modulate Aβ biogenesis via two mechanisms. PIP2 levels modulate the release of soluble APP ectodomain into the medium. HeLa cells stably expressing APPsw were treated with either PLC inhibitors (EDEL, MILT) or PLC activator (M3M). Conditioned cell media were analyzed for secreted APP ectodomains generated by α-(sAPPα) (A) and β-secretase (sAPPβ) (B) cleavage. Aβ42 (D) and total Aβ biogenesis (C) in HEK293 cells transiently transfected with C99, C-terminal stub of APP that serves as a direct γ-secretase substrate, in the presence of PIP2 level modulator, EDEL. Aβ42 (F) and total Aβ biogenesis (E) in HEK293 cells transiently transfected with C99, C-terminal stub of APP that serves as a direct γ-secretase substrate, in the presence of PIP2 level modulator, M3M.
(§4) PIP2 levels modulate Aβ biogenesis via two distinct mechanisms. The metabolites of PIP2, including IP3 and DAG, have been implicated in APP processing pathways (69, 70, 71). Under normal conditions, PIP2 hydrolysis (to generate IP3 and DAG) favors the generation of α-secretase-generated secreted APP ectodomain (sAPPα). […] To more clearly define the role of PIP2 in modulating γ-secretase activity (e.g. Aβ42), we next expressed an APP-C99 construct, an ectopic γ-secretase substrate which resembles β-secretase-generated, membrane-associated APP stub in heterologous cells.

For a further experiment, the system named is α-secretase (sAPPα). Description: Secreted APP ectodomain generated by α-secretase (sAPPα) in conditioned media of HeLa APPsw cells. The class given is cell-based, human. Particulars: HeLa cells stably expressing APPsw. As for the experimental part: as §3, §4
A further experiment has as its system full-length APP (FL-APP). As to the kind of experiment: Steady-state full-length APP by Western blot in treated HeLa APPsw cells. The format is cell-based, human. Particulars: Western blot analysis. As for the experimental part: Full length APP and total Aβ biogenesis are not affected in treated cells. Modulation of PIP2 levels correlates with Aβ42 biogenesis. HeLa cells stably overexpressing the Swedish variant of human APP were treated with either control (DMSO), PLC inhibitor edelfosine (EDEL) or its active analog miltefosine (MILT). Steady-state PIP2 levels were determined by HPLC.
(A western blot detects proteins with antibodies after separation by electrophoresis.)

Experiment [5] deals with presenilin/γ-secretase (Aβ42). Description: Aβ42 biogenesis in HEK293 cells transiently transfected with C99 (direct γ-secretase substrate). The class given is cell-based. As for the experimental part:
as §3, §4

Entries after “also recorded” stand apart in the source; their conditions may differ. Read-outs that look alike come from different tables or passages of the source.

On to `CC(C)=CCC[C@](C)(O)[C@H]1CC[C@]2(C)[C@@H]1[C@H](O)C[C@@H]1[C@@]3(C)CC[C@H](O[C@@H]4O[C@H](CO)[C@@H](O)[C@H](O)[C@H]4O[C@@H]4O[C@H](CO)[C@@H](O)[C@H](O)[C@H]4O)C(C)(C)[C@@H]3CC[C@]12C` [(20S)Rg3], for which the “Aβ42/Aβ40 ratio in the brains” value is “decreases the ratio of Aβ42 to Aβ40” in the experiment with Tg2576 mice and “decreased Aβ42/Aβ40 ratio” in the experiment with Tg2576 mice (listed as Rg3). For the same molecule, the “Aβ37 and Aβ38” value with Aβ42 [1] is “concomitant increase”. In addition, in the experiment on Aβ42 [1], the “Aβ42 production relative to Aβ40” value is “preferentially lower the production of Aβ42; also recorded: also selectively decreases Aβ42 relative to Aβ40”. In addition, the “long-term potentiation (fEPSP slope) in the presence of Aβ42” value with hippocampal slices is listed as “blocks Abeta oligomer-induced inhibition of long-term potentitation”; in the experiment with hippocampal slices (listed as 20(S)Rg3) it was “increases LTP expression relative to untreated hippocampal slices”; in the experiment on hippocampal slices (listed as SMT-3), “blocks Aβ42 oligomer-induced synaptic dysfunction”. In addition, the “Aβ42-lowering effect with PLCβ3 expression inhibited by siRNA” value in the experiment on Aβ42 [2] (15 μM Rg3 for 6 hr, PLCβ3 siRNA) was “nearly abolished”. The “Aβ42-lowering effect with PLCγ1 expression inhibited by siRNA” value with Aβ42 [2] (15 μM Rg3 for 6 hr, PLCγ1 siRNA) is listed as “nearly abolished”. The “reduction of Aβ42 generation when PLCγ1 levels are suppressed (dose-response experiments)” value in the experiment with Aβ42 [2] (PLCγ1 suppressed) is listed as “far less effective”. Moreover, the “Aβ42/Aβ40 ratio in cultured neurons” value in the experiment on Aβ42 [3] (cultured neurons) is on record as “decreased Aβ42/Aβ40 ratio”. In the experiment with Aβ42 [3], the “Aβ42 in cultured hippocampal primary neurons” value is reported as “decrease Aβ42”.
On to `C=C(CCC=C(C)C)[C@H]1CC[C@]2(C)[C@@H]1[C@H](O)C[C@@H]1[C@@]3(C)CC[C@H](O[C@@H]4O[C@H](CO)[C@@H](O)[C@H](O)[C@H]4O[C@@H]4O[C@H](CO)[C@@H](O)[C@H](O)[C@H]4O)C(C)(C)[C@@H]3CC[C@]12C` [Rk1], for which, in the experiment with Aβ42 [1], the “Aβ37 and Aβ38” value is listed as “concomitant increase”; the “Aβ42 production relative to Aβ40” value is “preferentially lower the production of Aβ42; also recorded: selectively decreases Aβ42 relative to Aβ40”. Besides, the “Aβ42 in cultured hippocampal primary neurons” value in the experiment with Aβ42 [3] is given as “decrease Aβ42”.
Consider `CCCCCCCCCCCCCCCCCCOCC(COP(=O)([O-])OCC[N+](C)(C)C)OC` (stereo not shown) [edelfosine, Edelfosine], for which the “decrease in the levels of Aβ42” value with Aβ42 [4] (vs control (DMSO)) turned out to be 37.3%. In addition, the “increase in the steady-state levels of PIP2” value in the experiment on PIP2 (vs control (DMSO)) is recorded as around 10%.
Turning to `Cc1cc(C)c(S(=O)(=O)Nc2cccc(C(F)(F)F)c2)c(C)c1` [m-3m3FBS], the sAPPβ secretion entry in the experiment with β-secretase (sAPPβ) is reported as “dramatic increase”. The “increase in Aβ42” value in the experiment with Aβ42 [4] is recorded as 37.2%. Also, in the experiment on α-secretase (sAPPα), the sAPPα generation entry is “decreases in sAPPα”. Further, the “effect on steady-state levels of full-length APP (FL-APP)” value with full-length APP (FL-APP) was “No significant effects”. In addition, the “effect on Aβ42 in C99-transfected cells” value in experiment [5] is “Aβ42-promoting activity”. Besides, in the experiment with PIP2, the “decrease in the steady state levels of PIP2” value is around 11%.
On to `CCCCCCCCCCCCCCCCOP(=O)([O-])OCC[N+](C)(C)C` [miltefosine], for which the sAPPβ secretion result with β-secretase (sAPPβ) is “reduction in sAPPβ secretion”. The sAPPα generation entry in the experiment with α-secretase (sAPPα) is given as “increases in sAPPα generation”.

The values above are taken from patent US20080312187A1, “PHOSPHOINOSITIDE MODULATION FOR THE TREATMENT OF ALZHEIMER'S DISEASE” (priority 2005, published 2008).
